Measured values taken from patent US20190351002A1, “METHOD OF TREATING CANCER, PARASITE, MICROBIAL OR FUNGAL DISEASE” (priority 2017, published 2019).

Key:
[1] = test system: Hep2 (Human Epidermoid Larynx ca) cells; assay: MTT cytotoxicity test on Hep2 cell line; type: cell-based
From the text: The oils of the plant as an extract are used which have been obtained by cold pressing and it has been ensured that the extract is fresh and pure. The extracts that have been obtained through the whole study have been initially diluted with solvents, filtered and sterilized. Cytotoxicity study (MTT test) has been developed as a method regarding the Hep2 cell line in all parameters for initial doses. The maximum dose and dilution sub doses that have been determined accordingly have been repeated controlled groups. Different amounts of Hep2 cells have been tested in flat bottomed 96 well plates for cell culture during the first stage of the study and it has been determined that 2×10^4 cells were optimal for the monolayer layer of 2×10^4 cell per well. A pure oil of Zingiber officinale extract, which has been tested inside various solvents in terms of penetration into cells and homogenous distribution. MTT tests have been carried out relating to Hep2 cells in solvents too. DMSO was selected from solvents such as DMSO and Methanol and was used and cytopathic doses have not been exceeded during the whole study (FIG. 1). Essential oil has been obtained from Ginger and emulsions have been obtained from fixed oil plants (Nigella Sativa etc.) and compounds. According to MTT test (FIG. 2) results that belong to Zingiber officinale, the average OD values of the control group have been determined as 1.38.

Toxoplasma gondii = assay: ELISA test of efficiency against Toxoplasma gondii in infected Hep2 cells; type: cell-based; settings: 48 hour
From the text: An ELISA (Enzyme-Linked Immunosorbent Assay) test (FIG. 3) has been planned and conducted in order to determine efficiency against Toxoplasma gondii.
The ELISA test has been carried out on flat bottom well plates having 96 wells. First of all, the bases of the plates have been covered with a suitable amount of Hep2 cells. […] Following this all wells have been processed again with different doses (determined with MTT) of pyrimtheamine, sulphadiazine—and Ginger (Zingiber officinals) extract, prepared with DMSO.
1 Following all of these procedures, the supernatants were removed from the wells and were retained for 10 minutes with 100 μl cold methanol. • The plates which were ready for the ELISA process were then worked.
The result was read by the ELISA reader device in 30 minutes.

SMILES	OD value (MTT test) ([1]; 1 μg/ml)	OD value (MTT test) ([1]; 2 μg/ml)	OD value (MTT test) ([1]; 4 μg/ml)	OD value (MTT test) ([1]; 8 μg/ml)	OD value (MTT test) ([1]; 16 μg/ml)	OD value (MTT test) ([1]; 32 μg/ml)	ELISA OD value / reproduction according to positive control (PK) (Toxoplasma gondii; 0.5 μg/ml) [%]	ELISA OD value / reproduction according to positive control (PK) (Toxoplasma gondii; 4 μg/ml) [%]	ELISA OD value / reproduction according to positive control (PK) (Toxoplasma gondii; 2nd dose (printed '2.1 and 0.5 μg/ml': 2 μg/ml)) [%]	ELISA OD value / reproduction according to positive control (PK) (Toxoplasma gondii; 3rd dose) [%]	OD value (MTT test) ([1]; 50 μg/ml)	OD value (MTT test) ([1]; 100 μg/ml)	OD value (MTT test) ([1]; 200 μg/ml)
CCc1nc(N)nc(N)c1-c1ccc(Cl)cc1 [Pyrimethamine]	1.228	1.198	0.623	0.310	0.209	0.097	75	45	56	54	–	–	–
Nc1ccc(S(=O)(=O)Nc2ncccn2)cc1 [Sulphadiazine]	–	–	–	–	–	–	–	–	–	–	1.002	0.827	0.254
